Measured values from PubChem BioAssay (NCI).
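1) Cells in 96-well plates. 2) Compound, 48 h, 5 concentrations. 3) Linear interpolation between surrounding doses. 4) Unreached endpoint = highest concentration. Abbreviation: GI50, concentration required for 50% inhibition of growth. At the TGI there is no net growth.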

Columns and labels:
Assay in all cases: NCI anticancer screen, dose series, 48 h
786-0 renal = system: 786-0 renal
A498 renal = system: A498 renal
A549 NSCLC = system: A549 NSCLC
ACHN renal = system: ACHN renal
BT-549 breast = system: BT-549 breast
CAKI-1 renal = system: CAKI-1 renal
CCRF-CEM leukemia = system: CCRF-CEM leukemia
COLO 205 colon = system: COLO 205 colon
DU-145 prostate = system: DU-145 prostate
EKVX NSCLC = system: EKVX NSCLC
HCC-2998 colon = system: HCC-2998 colon
HCT-116 colon = system: HCT-116 colon
HCT-15 colon = system: HCT-15 colon
HL-60(TB) leukemia = system: HL-60(TB) leukemia
HOP-62 NSCLC = system: HOP-62 NSCLC
HOP-92 NSCLC = system: HOP-92 NSCLC
HS 578T breast = system: HS 578T breast
HT29 colon = system: HT29 colon
IGROV1 ovarian = system: IGROV1 ovarian
K-562 leukemia = system: K-562 leukemia
KM12 colon = system: KM12 colon
LOX IMVI melanoma = system: LOX IMVI melanoma
M14 melanoma = system: M14 melanoma
MALME-3M melanoma = system: MALME-3M melanoma
MCF7 breast = system: MCF7 breast
MDA-MB-231 breast = system: MDA-MB-231 breast
MDA-MB-435 = system: MDA-MB-435
MDA-MB-468 breast = system: MDA-MB-468 breast
MOLT-4 leukemia = system: MOLT-4 leukemia
NCI-H226 lung = system: NCI-H226 lung
NCI-H23 lung = system: NCI-H23 lung
NCI-H460 lung = system: NCI-H460 lung
NCI-H522 lung = system: NCI-H522 lung
NCI/ADR-RES ovarian = system: NCI/ADR-RES ovarian
OVCAR-3 ovarian = system: OVCAR-3 ovarian
OVCAR-4 ovarian = system: OVCAR-4 ovarian
OVCAR-5 ovarian = system: OVCAR-5 ovarian
OVCAR-8 ovarian = system: OVCAR-8 ovarian
RXF 393 renal = system: RXF 393 renal
SF-268 CNS = system: SF-268 CNS
SF-295 CNS = system: SF-295 CNS
SF-539 CNS = system: SF-539 CNS
SK-MEL-2 melanoma = system: SK-MEL-2 melanoma
SK-MEL-28 melanoma = system: SK-MEL-28 melanoma
SK-MEL-5 melanoma = system: SK-MEL-5 melanoma
SK-OV-3 ovarian = system: SK-OV-3 ovarian
SN12C renal = system: SN12C renal
SNB-19 CNS = system: SNB-19 CNS
SNB-75 CNS = system: SNB-75 CNS
SW-620 colon = system: SW-620 colon
T-47D breast = system: T-47D breast
TK-10 renal = system: TK-10 renal
U251 CNS = system: U251 CNS
UACC-257 melanoma = system: UACC-257 melanoma
UACC-62 melanoma = system: UACC-62 melanoma
UO-31 renal = system: UO-31 renal

`CCn1c(SCC(=O)Nc2ccc(-c3nc4ccccc4[nH]3)cc2)nc2ccccc2c1=O` was tested, and the GI50 (786-0 renal) was 1.65 µM, the TGI (786-0 renal) was 3.02 µM and the GI50 (A498 renal) was 1.61 µM. The TGI (A498 renal) was 3.18 µM, the GI50 (A549 NSCLC) was 1.74 µM and the TGI (A549 NSCLC) was 3.59 µM. It also gave a GI50 (ACHN renal) of 1.7 µM, a TGI (ACHN renal) of 3.07 µM and a GI50 (BT-549 breast) of 1.5 µM. The TGI (BT-549 breast) was 2.86 µM, the GI50 (CAKI-1 renal) was 1.78 µM and the TGI (CAKI-1 renal) was 3.29 µM. For the same compound, the GI50 (CCRF-CEM leukemia) was 25 µM, the TGI (CCRF-CEM leukemia) was over 100 µM and the GI50 (COLO 205 colon) was 2.3 µM. For the same compound, the TGI (COLO 205 colon) was 4.27 µM, the GI50 (DU-145 prostate) was 2.02 µM and the TGI (DU-145 prostate) was 3.99 µM. The GI50 (EKVX NSCLC) was 1.84 µM, the TGI (EKVX NSCLC) was 3.9 µM and the GI50 (HCC-2998 colon) was 2.04 µM. For the same compound, the TGI (HCC-2998 colon) was 4.89 µM, the GI50 (HCT-116 colon) was 1.75 µM and the TGI (HCT-116 colon) was 3.13 µM. The GI50 (HCT-15 colon) was 1.72 µM, the TGI (HCT-15 colon) was 3.3 µM and the GI50 (HL-60(TB) leukemia) was 2.46 µM. The TGI (HL-60(TB) leukemia) was 6.02 µM, the GI50 (HOP-62 NSCLC) was 1.7 µM and the TGI (HOP-62 NSCLC) was 3.18 µM. It also gave a GI50 (HOP-92 NSCLC) of 1.66 µM, a TGI (HOP-92 NSCLC) of 4.05 µM and a GI50 (HS 578T breast) of 2.06 µM. For the same compound, the TGI (HS 578T breast) was 4.66 µM, the GI50 (HT29 colon) was 1.99 µM and the TGI (HT29 colon) was 4.26 µM. The GI50 (IGROV1 ovarian) was 1.69 µM, the TGI (IGROV1 ovarian) was 3.33 µM and the GI50 (K-562 leukemia) was 2.91 µM. It also gave a TGI (K-562 leukemia) of over 100 µM, a GI50 (KM12 colon) of 2.5 µM and a TGI (KM12 colon) of 6.49 µM. For the same compound, the GI50 (LOX IMVI melanoma) was 1.7 µM, the TGI (LOX IMVI melanoma) was 3.1 µM and the GI50 (M14 melanoma) was 1.7 µM. For the same compound, the TGI (M14 melanoma) was 3.15 µM, the GI50 (MALME-3M melanoma) was 1.64 µM and the TGI (MALME-3M melanoma) was 3.02 µM. It also gave a GI50 (MCF7 breast) of 1.55 µM, a TGI (MCF7 breast) of 3 µM and a GI50 (MDA-MB-231 breast) of 1.82 µM. The TGI (MDA-MB-231 breast) was 3.35 µM, the GI50 (MDA-MB-435) was 1.73 µM and the TGI (MDA-MB-435) was 3.11 µM. For the same compound, the GI50 (MDA-MB-468 breast) was 1.56 µM, the TGI (MDA-MB-468 breast) was 3.04 µM and the GI50 (MOLT-4 leukemia) was 4.21 µM. It also gave a TGI (MOLT-4 leukemia) of over 100 µM, a GI50 (NCI-H226 lung) of 1.67 µM and a TGI (NCI-H226 lung) of 3.6 µM. The GI50 (NCI-H23 lung) was 2.04 µM, the TGI (NCI-H23 lung) was 4.73 µM and the GI50 (NCI-H460 lung) was 1.77 µM. The TGI (NCI-H460 lung) was 3.29 µM, the GI50 (NCI-H522 lung) was 1.77 µM and the TGI (NCI-H522 lung) was 3.51 µM. For the same compound, the GI50 (NCI/ADR-RES ovarian) was 1.82 µM, the TGI (NCI/ADR-RES ovarian) was 3.65 µM and the GI50 (OVCAR-3 ovarian) was 1.78 µM. For the same compound, the TGI (OVCAR-3 ovarian) was 3.28 µM, the GI50 (OVCAR-4 ovarian) was 1.75 µM and the TGI (OVCAR-4 ovarian) was 3.2 µM. It also gave a GI50 (OVCAR-5 ovarian) of 1.48 µM, a TGI (OVCAR-5 ovarian) of 2.98 µM and a GI50 (OVCAR-8 ovarian) of 2.09 µM. For the same compound, the TGI (OVCAR-8 ovarian) was 4.6 µM, the GI50 (RXF 393 renal) was 1.71 µM and the TGI (RXF 393 renal) was 3.19 µM. It also gave a GI50 (SF-268 CNS) of 2.06 µM, a TGI (SF-268 CNS) of 4.56 µM and a GI50 (SF-295 CNS) of 1.67 µM. For the same compound, the TGI (SF-295 CNS) was 3.09 µM, the GI50 (SF-539 CNS) was 1.76 µM and the TGI (SF-539 CNS) was 3.15 µM. For the same compound, the GI50 (SK-MEL-2 melanoma) was 1.91 µM, the TGI (SK-MEL-2 melanoma) was 3.95 µM and the GI50 (SK-MEL-28 melanoma) was 1.68 µM. It also gave a TGI (SK-MEL-28 melanoma) of 3.05 µM, a GI50 (SK-MEL-5 melanoma) of 1.78 µM and a TGI (SK-MEL-5 melanoma) of 3.33 µM. For the same compound, the GI50 (SK-OV-3 ovarian) was 1.93 µM, the TGI (SK-OV-3 ovarian) was 3.92 µM and the GI50 (SN12C renal) was 1.47 µM. The TGI (SN12C renal) was 2.82 µM, the GI50 (SNB-19 CNS) was 1.75 µM and the TGI (SNB-19 CNS) was 3.31 µM. The GI50 (SNB-75 CNS) was 1.29 µM, the TGI (SNB-75 CNS) was 2.61 µM and the GI50 (SW-620 colon) was 1.87 µM. The TGI (SW-620 colon) was 3.5 µM, the GI50 (T-47D breast) was 1.71 µM and the TGI (T-47D breast) was 3.49 µM. For the same compound, the GI50 (TK-10 renal) was 1.8 µM, the TGI (TK-10 renal) was 3.26 µM and the GI50 (U251 CNS) was 1.75 µM. The TGI (U251 CNS) was 3.39 µM, the GI50 (UACC-257 melanoma) was 1.79 µM and the TGI (UACC-257 melanoma) was 3.45 µM. The GI50 (UACC-62 melanoma) was 1.56 µM, the TGI (UACC-62 melanoma) was 2.93 µM and the GI50 (UO-31 renal) was 1.53 µM. For the same compound, the TGI (UO-31 renal) was 2.88 µM.
